Experimental data reported in PMC10540511 (Cellular and molecular life sciences : CMLS, 2023).
Where two headings read alike, the source gives them in different places.

Tests used:
[1] = molecular target: T1, CBM98 (BoGH13ASus CBM98) (Bacteroides ovatus, UniProt A0ABU3ISA0); assay: isothermal titration calorimetry; format: binding; settings: read-out: Kd (μM) ± SD; 25 °C, 20 mM HEPES pH 7.0, 100 mM NaCl
T1 sequence (A0ABU3ISA0 22-143): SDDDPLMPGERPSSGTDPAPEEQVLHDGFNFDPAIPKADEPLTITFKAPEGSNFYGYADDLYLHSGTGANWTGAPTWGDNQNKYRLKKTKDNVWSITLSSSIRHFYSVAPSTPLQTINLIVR

[2] = molecular target: T2, CBM98-CBM48 (BoGH13ASus CBM98-CBM48) (Bacteroides ovatus, UniProt A0ABU3ISA0); assay: isothermal titration calorimetry; format: binding; settings: read-out: Kd (μM) ± SD, 25 °C, 20 mM HEPES pH 7.0, 100 mM NaCl
T2 sequence (A0ABU3ISA0 22-296): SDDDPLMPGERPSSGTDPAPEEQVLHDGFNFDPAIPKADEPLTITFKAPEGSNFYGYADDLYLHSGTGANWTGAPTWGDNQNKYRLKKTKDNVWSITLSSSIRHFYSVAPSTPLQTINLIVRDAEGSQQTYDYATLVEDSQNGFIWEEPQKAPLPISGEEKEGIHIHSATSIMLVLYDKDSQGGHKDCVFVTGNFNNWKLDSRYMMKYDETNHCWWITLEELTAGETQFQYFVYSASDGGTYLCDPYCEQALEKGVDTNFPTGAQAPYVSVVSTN

[3] = standard-volume instrument, 25 μM protein

| SMILES | Kd [1] | Kd [2] | Kd [2, 3] |
| --- | --- | --- | --- |
| OC[C@H]1O[C@H](O[C@H]2[C@H](O)[C@@H](O)[C@@H](O[C@H]3[C@H](O)[C@@H](O)[C@@H](O[C@H]4[C@H](O)[C@@H](O)[C@@H](O[C@H]5[C@H](O)[C@@H](O)[C@@H](O[C@H]6[C@H](O)[C@@H](O)[C@@H](O[C@H]7[C@H](O)[C@@H](O)C(O)O[C@@H]7CO)O[C@@H]6CO)O[C@@H]5CO)O[C@@H]4CO)O[C@@H]3CO)O[C@@H]2CO)[C@H](O)[C@@H](O)[C@@H]1O (stereo partly drawn) [G7, maltoheptaose] | 32 ± 9.8 µM | 33 ± 9.9 µM | – |
| OC[C@H]1O[C@@H]2O[C@H]3[C@H](O)[C@@H](O)[C@@H](O[C@H]4[C@H](O)[C@@H](O)[C@@H](O[C@H]5[C@H](O)[C@@H](O)[C@@H](O[C@H]6[C@H](O)[C@@H](O)[C@@H](O[C@H]7[C@H](O)[C@@H](O)[C@@H](O[C@H]1[C@H](O)[C@H]2O)O[C@@H]7CO)O[C@@H]6CO)O[C@@H]5CO)O[C@@H]4CO)O[C@@H]3CO [αCD, α-cyclodextrin] | 42 ± 13 µM | – | 43 ± 18 µM |
| OC[C@H]1O[C@@H]2O[C@H]3[C@H](O)[C@@H](O)[C@@H](O[C@H]4[C@H](O)[C@@H](O)[C@@H](O[C@H]5[C@H](O)[C@@H](O)[C@@H](O[C@H]6[C@H](O)[C@@H](O)[C@@H](O[C@H]7[C@H](O)[C@@H](O)[C@@H](O[C@H]8[C@H](O)[C@@H](O)[C@@H](O[C@H]1[C@H](O)[C@H]2O)O[C@@H]8CO)O[C@@H]7CO)O[C@@H]6CO)O[C@@H]5CO)O[C@@H]4CO)O[C@@H]3CO [βCD, β-cyclodextrin] | 26 ± 3.8 µM | – | 21 ± 1.4 µM |
